Experimental data as given in article PMC8757871, “Bridging the Antimicrobial Activity of Two Lactoferricin Derivatives in E. coli and Lipid-Only Membranes” (Frontiers in Medical Technology, 2021).
Like-named read-outs stand apart in the source and are kept apart here.

Tests used:
[1] = system: E. coli K12 5K; assay type: cell-based, Escherichia coli; details: MIC = IC99.9, 2 h incubation with AMP in PBS at 37°C, then growth in LB about 20 h
Method: Colonies of E. coli K12 5K (courtesy of Günther Koraimann, University of Graz) were grown in LB-agar plates at 37°C. Overnight cultures (ONCs) were prepared by inoculating a single colony in 3 ml LB-medium in sterile polypropylene conical tubes (15 ml), enabling bacterial growth under aerobic conditions for 12−16 h in a shaking incubator at 37°C. Main cultures were prepared by suspending an aliquot of the ONCs in 10 ml LB-medium in sterile polypropylene conical tubes (50 ml) and harvested in the middle of the exponential growth phase. Bacteria were then immediately washed twice and re-suspended in nutrient-free and isotonic phosphate-buffered saline (PBS) solution (phosphate buffer 20 mM, NaCl 130 mM) at pH 7.4. Bacterial concentration was measured via turbidity measurements. The optical density at λ = 600 nm (OD600) was acquired with the spectrophotometer Thermo Spectronic Genesys 20 (Thermo Fisher Scientific, Waltham, MA), where OD600 = 1 corresponds approximately to 8 ×10^8 CFU/ml (where CFU is colony forming units).
The antimicrobial activity of the AMPs on E. coli was tested using a modified susceptibility microdilution assay ([30]) in the bacterial concentration range of 5 × 10^5 to 10^9 CFU/ml. Bacterial suspensions were incubated at a given AMP concentration for 2 h at 37°C (control samples were incubated in buffer only). Then, cell growth was monitored upon addition of double concentrated LB-medium for about 20 h using a Bioscreen C MBR (Oy Growth Curves Ab, Helsinki, Finland).
This allowed us to quantify the number density of surviving bacteria from the onset of the exponential growth via the relation Δtexp = a + blog(ncell), where a and b were obtained from a calibration curve in absence of AMPs (Supplementary Figure 1B). Then, the inhibited bacterial fraction IF=1-ncell([P])/ncell0 was calculated for different values of peptide concentration, [P], and of bacterial number density of the control sample, ncell0 . Following the so-called “equi-activity” analysis ([27], [31]), we further interpolated IF using a Gompertz function, which enabled us to derive inhibitory peptide concentrations ICx, where x is the corresponding inhibited bacterial fraction (Supplementary Figure 1C). By convention, the standard MIC is defined at inhibition levels of 99.9%, i.e., IC99.9 ≡ MIC. Additional control experiments were performed in order to test whether DMSO and acetic acid, used in buffer solutions of both peptides (see above), affect bacterial growth. In particular, the microdilution assays were repeated with LF11-215 dissolved in pure PBS, yielding equivalently delayed onsets of bacterial growth.

[2] = peptide partitioning from tryptophan fluorescence; assay type: binding; details: for K (mole fraction partitioning coefficient) / RB ([P]B/[L]) / [P]W (peptide concentration in the water phase): Trp emission band analysis, after 1 h incubation, HBS pH 7.4, 37°C
Method: All hydrated samples were equilibrated for 1 h at 40°C followed by 5 freeze-and-thaw cycles using liquid N2 and intermittent vortex-mixing. Large unilamellar vesicles (LUVs) were obtained by 31 extrusions with a handheld mini extruder (Avanti Polar Lipids, Alabaster, AL) using a 100 nm pore diameter polycarbonate filter. Vesicle size and polydispersity were determined via DLS using a Zetasizer NANO ZSP (Malvern Panalytical, Malvern, UK). ANTS/DPX-containing vesicles were separated from free ANTS/DPX by exclusion chromatography using a column filled with SephadexTM G-75 (Amersham Biosciences, Little Chalfont, UK) fine gel swollen in iso-osmotic HBS. Phospholipid concentrations for all samples were determined by phosphate analysis.
Fluorescence emission from Trp, present in both peptides, was measured with the Cary Eclipse Fluorescence Spectrophotometer, setting the excitation wavelength to λ= 280 nm, which corresponds to the maximum intensity of the Trp absorption/excitation band. Intensities of exciting and emitting light were adjusted by setting the slit widths of both incident and outgoing beam to 5 or 10 nm, depending on the emission intensity, in order to optimize the signal-to-noise ratio. Emission spectra were background-subtracted to remove contributions originating from the instrument's baseline and scattered light from vesicles. All samples were measured in HBS at 37°C using a quartz cuvette, with a magnetic stirrer to prevent sample sedimentation in the case of aggregation. LUVs ([L] = 100 μM) were mixed with peptides ([P] = 2 and 4 μM), recording fluorescence spectra at various post-mixing time intervals ranging from 0.5 to 60 min. Peptide solutions were measured at concentrations of 2, 3, and 4 μM in order to calibrate their intensity dependence in buffer.
The fluorescence emission band was fitted with the log-normal-like function ([32], [33]) where λmax and I0 are, respectively, wavelength and intensity of the emission peak; Γ is the full-width-at-half-maximum (FWHM) of the band; α is a skewness parameter (fixed at an optimum values 1.36 after testing); and y = α/(α^2 − 1). Spectra from mixtures of LUVs and peptides were analyzed with a linear combination of two independent bands I^W and I^B, referring to AMPs in bulk (W) and partitioned into the lipid bilayer (B). λ^W and Γ^W were fixed to the reference values obtained by analyzing spectra from pure AMPs. Instead, I0W , I0B , λ^B, and Γ^B were adjustable parameters. The so obtained set of I0W values was converted to the concentration of dissociated peptides [P]W and further analyzed for peptide partitioning as detailed in section 2.3.1.
Following a previously reported thermodynamic formalism for the partitioning of peptides into lipid bilayers ([37]), based on the free energy of transfer of molecules from water into octanol ([38]), we define the mole fraction partitioning coefficient, K, as […]
(3) K=[P]B/([P]B+[L])/[P]W/([P]W+[W])≃[P]B[W]/[P]W[L], where [P]B is the molar concentration of peptides partitioned into the lipid phase; [P]W is the peptide concentration in the water phase; and [L] and [W] are, respectively, the molar concentrations of lipids and bulk water (55.5 M at 25°C and 55.3 M at 37°C). The approximation for K (Equation 3) is obtained applying [W] ≫ [PW] and [L] ≫ [PB] (similarly, the concentration of ions in water, i.e., buffer solutions, is negligible compared to [W]). By definition, the total concentration of peptides is [P] = [P]W + [P]B, thus leading to […]
(4) [P]=RB[W]/K︸[P]W+RB[L]︸[P]B=RB([W]/K+[L]),

[3] = POPE/POPG LUVs [L] = 100 μM, [P] = 2 μM
[4] = POPE/POPG LUVs [L] = 100 μM, [P] = 4 μM
[5] = POPE/POPG/TOCL LUVs [L] = 100 μM, [P] = 2 μM
[6] = POPE/POPG/TOCL LUVs [L] = 100 μM, [P] = 4 μM
[7] = POPG LUVs [L] = 100 μM, [P] = 2 μM
[8] = POPG LUVs [L] = 100 μM, [P] = 4 μM

Substance	MIC ([1]; ncell = 10^6 CFU/ml)	MIC ([1]; ncell = 10^9 CFU/ml)	K (mole fraction partitioning coefficient) [2, 3]	RB ([P]B/[L]) [2, 3]	[P]W (peptide concentration in the water phase) [2, 3]	K (mole fraction partitioning coefficient) [2, 4]	RB ([P]B/[L]) [2, 4]	[P]W (peptide concentration in the water phase) [2, 4]	K (mole fraction partitioning coefficient) [2, 5]	RB ([P]B/[L]) [2, 5]	[P]W (peptide concentration in the water phase) [2, 5]	K (mole fraction partitioning coefficient) [2, 6]	RB ([P]B/[L]) [2, 6]	[P]W (peptide concentration in the water phase) [2, 6]	K (mole fraction partitioning coefficient) [2, 7]	RB ([P]B/[L]) [2, 7]	[P]W (peptide concentration in the water phase) [2, 7]	K (mole fraction partitioning coefficient) [2, 8]	RB ([P]B/[L]) [2, 8]	[P]W (peptide concentration in the water phase) [2, 8]	other results
H-FWRIRIRR-NH2 [LF11-215, H-FWRIRIRR-NH2]	13.7 ± 0.4 µM	158 ± 2 µM	70 ± 4 ×10^4	11.2 ± 0.3 ×10^−3	0.88 ± 0.03 µM	43 ± 3 ×10^4	17.5 ± 0.7 ×10^−3	2.25 ± 0.07 µM	82 ± 4 ×10^4	11.9 ± 0.2 ×10^−3	0.81 ± 0.02 µM	139 ± 6 ×10^4	28.6 ± 0.3 ×10^−3	1.14 ± 0.03 µM	161 ± 6 ×10^4	14.9 ± 0.3 ×10^−3	0.513 ± 0.015 µM	217 ± 8 ×10^4	31.9 ± 0.4 ×10^−3	0.81 ± 0.04 µM	membrane partitioning, times higher than for LF11-324 ([2]; POPE/POPG/TOCL lipid mixtures): ~ 1.3 times
H-PFFWRIRIRR-NH2 [LF11-324, H-PFFWRIRIRR-NH2]	11.1 ± 0.6 µM	57 ± 2 µM	67 ± 4 ×10^4	11.0 ± 0.3 ×10^−3	0.90 ± 0.02 µM	47 ± 3 ×10^4	18.4 ± 0.6 ×10^−3	2.16 ± 0.06 µM	63 ± 4 ×10^4	10.6 ± 0.3 ×10^−3	0.95 ± 0.03 µM	111 ± 5 ×10^4	26.7 ± 0.4 ×10^−3	1.33 ± 0.04 µM	61 ± 4 ×10^4	10.5 ± 0.3 ×10^−3	0.95 ± 0.03 µM	20 ± 20 ×10^4	10.7 ± 0.9 ×10^−3	2.93 ± 0.09 µM	–
